Values after ≈ are worked out from the molar mass of the structure shown. Square brackets hold non-standard residues; d marks the D form. Peptide text beside a SMILES is read from it. * marks the point of attachment. Myristoyl = CCCCCCCCCCCCCC(=O)*; dOrn = NCCC[C@@H](N)C(=O)O; Orn = NCCC[C@H](N)C(=O)O
Key:
[1] = tested on: Klebsiella pneumoniae CRKP 5452; assay: microbe, parasite or virus in culture; assay type: cell-based
Summary of the method: (§1)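 Growth inhibition read visually; MIC taken as lowest inhibitory concentration. LB medium; inocula from overnight cultures diluted 5000-fold, S. aureus 10000-fold. Peptide range 64 to 0.125 µg mL^−1 (2-fold, pre-mix), two independent determinations.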

[2] = tested on: Klebsiella pneumoniae CRKP HS11286; assay: microbe, parasite or virus in culture; assay type: cell-based
Summary of the method: as §1

[3] = tested on: Klebsiella pneumoniae NCTC 5056; assay: microbe, parasite or virus in culture; assay type: cell-based
Summary of the method: as §1

[4] = tested on: K. pneumoniae CRKP 5452 PhoQL348Q; assay: MIC against colistin-resistant mutant; assay type: cell-based; settings: Figure S127a, colistin-resistant mutant from serial passaging
Protocol: (§2) All MIC assays were performed two independent times (n = 2) in 96‐well plates using a broth micro‐dilution method. The lowest concentration of that inhibited visible microbial growth was recorded as the MIC value.
(§3) For most of bacterial strains, overnight cultures were diluted 5000‐fold in LB broth. For E. faecium and S. aureus, overnight cultures were diluted 1000‐ and 10000‐fold in LB broth, respectively. 100 µL of diluted cells was mixed with 100 µL of LB broth containing each peptide ranging from 64 to 0.125 µg mL^−1 at 2‐fold serial dilutions.
(§4) Overnight cultures S. aureus USA300 were diluted 10000‐fold in LB broth, and 100 µL of dilute cell suspension was added to 96‐well plates containing 100 µL serially diluted aquicidine C4, telomycin, and daptomycin (with 15 mM CaCl2). Overnight cultures K. pneumoniae CRKP5452 were diluted 5000‐fold in LB broth, and 100 µL of dilute cell suspension was added to 96‐well plates containing 100 µL serially diluted aquicidine L and colistin. After an incubation of 24 h at 37 °C, the MIC value was determined. […] The MIC value was recorded as described above, and the process was repeated daily for 21 days. Experiments were performed two independent times (n = 2).
Single‐nucleotide polymorphisms (SNPs) for telomycin‐, daptomycin‐ or colistin‐resistant mutants were identified using SNIPPY by mapping DNBSEQ‐seq reads to the reference genome of S. aureus USA300 or K. pneumoniae CRKP5452.

K. pneumoniae 15580 = assay: MIC against colistin-resistant strain; assay type: cell-based; settings: Figure S127a
Protocol: as §2, §3

K. pneumoniae CRKP5452 = assay: Resistance acquisition by serial passaging; assay type: cell-based; settings: K. pneumoniae CRKP5452, sub-MIC levels, daily passage for 21 days, n = 2
Protocol: as §4

[5] = tested on: Gram negative and positive bacteria; set-up: method as in 2 sources, one per row (each row's own in cited_ref): ref 49 (a number printed in a supplementary file, which may have a reference list of its own: not looked up in the article's list) ||| ref 50 (a number printed in a supplementary file, which may have a reference list of its own: not looked up in the article's list); settings: Figure S20, known paired peptides; cited from earlier work
[6] = set-up: method as in earlier work; settings: Figure S20; cited from earlier work
[7] = set-up: method as in earlier work; settings: Figure S20; cited from earlier work; remark: listed apart in the source
B. subtilis ATCC 23857 = assay: MIC assay (broth micro-dilution); assay type: cell-based; settings: Table S11; LB broth, 37 °C, 16 h, n = 2
Protocol: as §2, §3

Shigella Castellani LXX = assay: MIC assay (broth micro-dilution); assay type: cell-based; settings: Table S11; LB broth, 37 °C, 16 h, n = 2
Protocol: as §2, §3

[8] = tested on: Acinetobacter baumannii 1104008; assay: microbe, parasite or virus in culture; assay type: cell-based; settings: Table S11; LB broth, 37 °C, 16 h, n = 2
Summary of the method: as §1

[9] = tested on: Acinetobacter baumannii ATCC 17978; assay: microbe, parasite or virus in culture; assay type: cell-based; settings: ATCC 17978, 16 h
Summary of the method: as §1

[10] = tested on: Acinetobacter baumannii ATCC 19606; assay: microbe, parasite or virus in culture; assay type: cell-based; settings: ATCC 19606, 16 h
Summary of the method: as §1

[11] = tested on: Acinetobacter baumannii P53; assay: microbe, parasite or virus in culture; assay type: cell-based; settings: Table S11; LB broth, 37 °C, 16 h, n = 2
Summary of the method: as §1

Enterococcus faecalis 26 = assay: microbe, parasite or virus in culture; assay type: cell-based; settings: 26, 16 h
Summary of the method: as §1

Enterococcus faecalis 28 = assay: microbe, parasite or virus in culture; assay type: cell-based; settings: 28, 16 h
Summary of the method: as §1

[12] = tested on: Enterococcus faecalis ATCC 29212; assay: microbe, parasite or virus in culture; assay type: cell-based; settings: ATCC 29212, 16 h
Summary of the method: as §1

[13] = tested on: Enterococcus faecium 35682; assay: microbe, parasite or virus in culture; assay type: cell-based; settings: 35682, 16 h
Summary of the method: as §1

[14] = tested on: Klebsiella pneumoniae ATCC 13883; assay: microbe, parasite or virus in culture; assay type: cell-based; settings: ATCC 13883, 16 h
Summary of the method: as §1

[15] = tested on: Pseudomonas aeruginosa ATCC 9027; assay: microbe, parasite or virus in culture; assay type: cell-based; settings: ATCC 9027, 16 h
Summary of the method: as §1

[16] = tested on: Pseudomonas aeruginosa PAO1; assay: microbe, parasite or virus in culture; assay type: cell-based; settings: PAO1, 16 h
Summary of the method: as §1

[17] = tested on: Salmonella enterica ATCC 14028; assay: microbe, parasite or virus in culture; assay type: cell-based; settings: ATCC 14028, 16 h
Summary of the method: as §1

[18] = tested on: Salmonella typhimurium LXX; assay: microbe, parasite or virus in culture; assay type: cell-based; settings: murium LXX, 16 h
Summary of the method: as §1

[19] = tested on: Staphylococcus aureus ATCC 25923; assay: microbe, parasite or virus in culture; assay type: cell-based; settings: ATCC 25923, 16 h
Summary of the method: as §1

[20] = tested on: Staphylococcus aureus ATCC 6538; assay: microbe, parasite or virus in culture; assay type: cell-based; settings: ATCC 6538, 16 h
Summary of the method: as §1

[21] = tested on: Staphylococcus aureus Newman; assay: microbe, parasite or virus in culture; assay type: cell-based; settings: Newman, 16 h
Summary of the method: as §1

[22] = tested on: Staphylococcus aureus USA300; assay: microbe, parasite or virus in culture; assay type: cell-based; settings: Table S11; LB broth, 37 °C, 16 h, n = 2
Summary of the method: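 Broth microdilution in LB, run in two independent repeats. Overnight cultures were diluted 5000-fold, except S. aureus at 10000-fold, and mixed with peptide-containing LB (2-fold series, 64 to 0.125 µg mL^−1 before mixing). MIC is the lowest concentration that prevented visible growth.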

[23] = tested on: Streptococcus mutans ATCC 25175; assay: microbe, parasite or virus in culture; assay type: cell-based; settings: ATCC 25175, 16 h
Summary of the method: as §1

[24] = tested on: Streptococcus pyogenes ATCC 19615; assay: microbe, parasite or virus in culture; assay type: cell-based; settings: Table S11; LB broth, 37 °C, 16 h, n = 2
Summary of the method: as §1

[25] = tested on: Vibrio alginolyticus XSBZ14; assay: microbe, parasite or virus in culture; assay type: cell-based; settings: 16 h
Summary of the method: as §1

[26] = tested on: Candida albicans ATCC 10231; assay: MIC assay (YPD broth); assay type: cell-based; settings: Table S11; YPD broth, 30 °C, 16 h, n = 2
Protocol: as §2
(§5) For fungal strains, overnight cultures were diluted 2000‐fold in YPD broth. 100 µL of diluted cells was mixed with 100 µL of YPD broth containing each peptide ranging from […] 64 to 0.125 µg mL^−1 at 2‐fold serial dilutions.

[27] = tested on: Candida albicans ATCC 64550; assay type: cell-based; settings: ATCC 64550, 16 h
Protocol: as §2, §5

Gram negative bacteria = tested on: Gram negative bacteria; set-up: method as in 2 sources, one per row (each row's own in cited_ref): ref 27 (a number printed in a supplementary file, which may have a reference list of its own: not looked up in the article's list) ||| ref 26 = [26]; PMID 24281661; doi:10.1038/ja.2013.121; 26 S. Kozuma , Y. Hirota‐Takahata , D. Fukuda , N. Kuraya , M. Nakajima , O , A , J. Antibiot. (Tokyo) 2014 , 67 , 237 . 24281661 10.1038/ja.2013.121; settings: Figure S20, known paired peptides; cited from earlier work
Source text: All 17 synAQUs were initially assayed for antimicrobial activity against four Gram‐negative bacteria, four Gram‐positive bacteria, and one fungal pathogen.

Compound: Colistin [reference compound]
- antibacterial activity (MIC) K. pneumoniae CRKP 5452 ([1]; Figure S127a, wild type): 0.125 µg/mL
- antibacterial activity (MIC) K. pneumoniae CRKP HS11286 ([2]; Figure S127a): 0.125 µg/mL
- antibacterial activity (MIC) K. pneumoniae NCTC 5056 ([3]; Figure S127a, colistin-resistant strain): 32 µg/mL
- antibacterial activity (MIC) K. pneumoniae CRKP 5452 PhoQL348Q [4]: 4 µg/mL
- antibacterial activity (MIC) K. pneumoniae 15580 (K. pneumoniae 15580): > 64 µg/mL
- increase of MIC during serial passaging (K. pneumoniae CRKP5452): 13.3 fold

Compound: Bacaucin
- antibacterial activity [5]: Broad antibacterial activity
- hemolytic activity [6]: He mo l y t i c
- cytotoxic activity [7]: Cyt ot oxic

Compound: CCCCCCCCCCCCCC(=O)N[C@@H](CCCN)C(=O)N[C@H](Cc1ccc(O)cc1)C(=O)N[C@@H](C(=O)N[C@@H](C(=O)N[C@H](CCCN)C(=O)N[C@@H](CCCN)C(=O)N[C@@H](C(=O)N[C@H](C(=O)N[C@@H](CC(C)C)C(=O)N[C@H](CCCN)C(=O)N[C@H](C(=O)N[C@@H](C)C(=O)O)[C@@H](C)O)[C@@H](C)CC)C(C)C)[C@H](C)O)C(C)C [synAQU6-L] (Myristoyl-[Orn][dY][dV][dT][dOrn][Orn][dV]IL[dOrn]TA-OH)
- MIC Bacllussubtilis ATCC 23857 (B. subtilis ATCC 23857): 8 µg/mL (≈ 5.17 µM)
- MIC Shigella Castellani LXX (Shigella Castellani LXX): > 64 µg/mL
- MIC Acinetobacter baumannii 1104008 [8]: > 64 µg/mL
- MIC Acinetobacter baumannii ATCC 17978 [9]: 32 µg/mL (≈ 20.7 µM)
- MIC Acinetobacter baumannii ATCC 19606 [10]: > 64 µg/mL
- MIC Acinetobacter baumannii P53 [11]: > 64 µg/mL
- MIC Enterococcus faecalis 26 (Enterococcus faecalis 26): 4 µg/mL (≈ 2.59 µM)
- MIC Enterococcus faecalis 28 (Enterococcus faecalis 28): > 64 µg/mL
- MIC Enterococcus faecalis ATCC 29212 [12]: > 64 µg/mL
- MIC Enterococcus faecium 35682 [13]: > 64 µg/mL
- MIC Klebsiella pneumoniae ATCC 13883 [14]: > 64 µg/mL
- MIC Klebsiella pneumoniae CRKP 5452 ([1]; Table S11, LB broth, 37 °C, 16 h, n = 2): > 64 µg/mL
- MIC Klebsiella pneumoniae CRKP HS11286 ([2]; CRKP HS11286, 16 h): > 64 µg/mL
- MIC Klebsiella pneumoniae NCTC 5056 ([3]; NCTC 5056, 16 h): > 64 µg/mL
- MIC Pseudomonas aeruginosa ATCC 9027 [15]: 32 µg/mL (≈ 20.7 µM)
- MIC Pseudomonas aeruginosa PAO1 [16]: > 64 µg/mL
- MIC Salmonella enterica ATCC 14028 [17]: > 64 µg/mL
- MIC Salmonella typhimurium LXX [18]: > 64 µg/mL
- MIC Staphylococcus aureus ATCC 25923 [19]: > 64 µg/mL
- MIC Staphylococcus aureus ATCC 6538 [20]: 32 µg/mL (≈ 20.7 µM)
- MIC Staphylococcus aureus Newman [21]: > 64 µg/mL
- MIC Staphylococcus aureus USA300 [22]: > 64 µg/mL
- MIC Streptococcus mutans ATCC 25175 [23]: 4 µg/mL (≈ 2.59 µM)
- MIC Streptococcus pyogenes ATCC 19615 [24]: 2 µg/mL (≈ 1.29 µM)
- MIC Vibrio alginolyticus XSBZ14 [25]: > 64 µg/mL
- MIC Candida albicans ATCC 10231 [26]: > 64 µg/mL
- MIC Candida albicans ATCC 64550 [27]: > 64 µg/mL

Compound: Laterocidine
- MIC, anti-Gram negative activity (Gram negative bacteria): 2 to 4 µg/mL
